For test [1], the system named is trimethylation level of histone H3K27 in G401 cells. In words: ELISA (H3K27 trimethylation) analysis in G401 cells. The class given is cell-based. As to conditions: Homo sapiens, G-401, 72 hours, H3K27me3 standardized to H3. The method in brief:
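Cells exposed 72 h to 10-point 3-fold dilutions, top 10 μM, 0.5% final DMSO. Acid-extracted histones assayed by ELISA (ECL) for H3K27me3, normalized to total H3 and to DMSO control; IC50 from dose-response fit.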

Test [2] concerns the target T1, EED protein (His6-tagged full-length) binding to H3K27me3 polypeptide (Homo sapiens, UniProt O75530).
T1 construct: His6-tagged full-length EED protein (441 amino acids)
Description: AlphaScreen evaluation of blocking the binding of EED to H3K27Me3. The following applies: EED 60 nM, biotinylated H3K27me3 75 nM, 30 minutes incubation. The method in brief:
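His6-tagged full-length EED (60 nM working stock) and biotin-H3K27me3 peptide aa 19–33 (75 nM working stock) incubated 30 min RT with 9-point 3-fold compound series in 25 mM HEPES pH 8.0, 50 mM NaCl, 0.015% Tween 20, 0.5% BSA. Ni-chelate acceptor and streptavidin donor beads (5 μg/mL each), 1 h dark; IC50 from dose-response fit. Biotin-(His)6 counterscreen checked signal interference.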

A further test deals with KARPAS-422 cells. In words: Cell proliferation analysis, KARPAS-422, 13 days, CellTiter-Glo. In kind it is cell-based. As to conditions: Homo sapiens, 312 h. The method in brief: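 KARPAS-422 cells were treated with PRC2 inhibitors over 9 three-fold dilutions from 10 μM top (0.5% DMSO, duplicates) in RPMI-1640 with 15% FBS at 37 °C. Every 3–4 days cells were counted and reseeded at 1×10^4/well with fresh compound. Viability was read by CellTiter-Glo luminescence on day 13.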
In general terms: ATP-based viability assays read luminescence as a measure of living cells.

The values that follow come from patent US12583870B2, “Azaheteroaryl compound and application thereof” (SHANGHAI BLUERAY BIOPHARMA CO., LTD., priority 2019, dated 2026).

Structures are written as SMILES.

T1 sequence (O75530 whole entry): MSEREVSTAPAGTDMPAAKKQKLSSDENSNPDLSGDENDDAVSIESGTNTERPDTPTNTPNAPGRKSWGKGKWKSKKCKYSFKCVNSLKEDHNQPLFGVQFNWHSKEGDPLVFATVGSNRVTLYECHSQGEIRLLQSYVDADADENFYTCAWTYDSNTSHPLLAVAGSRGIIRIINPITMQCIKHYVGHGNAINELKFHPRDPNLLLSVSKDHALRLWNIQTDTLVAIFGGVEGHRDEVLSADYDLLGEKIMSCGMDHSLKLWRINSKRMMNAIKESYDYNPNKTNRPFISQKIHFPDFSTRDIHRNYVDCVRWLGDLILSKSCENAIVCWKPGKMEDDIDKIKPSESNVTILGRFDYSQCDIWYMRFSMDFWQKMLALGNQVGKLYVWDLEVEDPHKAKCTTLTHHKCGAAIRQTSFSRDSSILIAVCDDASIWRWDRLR

A word on the IC50: it is the concentration that gives 50% inhibition. A higher IC50 goes with a need for much substance. For the compound `Cc1cn2cccc(-c3cnc(NCc4c(F)ccc5c4CCO5)n4cnnc34)c2n1` [N-((5-fluoro-2,3-dihydrobenzofuran-4-yl)methyl)-8-(2-methylimidazo[1,2-a]pyridin-8-yl)-[1,2,4]triazolo[4,3-c]pyrimidin-5-amine], the IC50 is 0.003 µM in test [1], 0.0141 µM in test [2] and 0.0024 µM in the test on KARPAS-422 cells.
`Cc1ccc(-c2cnc(NCc3c(F)ccc4c3CCO4)n3cnnc23)c2ncc(CC(=O)N(C)C)n12` [2-(8-(5-(((5-fluoro-2,3-dihydrobenzofuran-4-yl)methyl)amino)-[1,2,4]triazolo[4,3-c]pyrimidin-8-yl)-5-methylimidazo[1,2-a]pyridin-3-yl)-N,N-dimethylacetamide]: the concentration for half-maximal inhibition (IC50) in test [1] came to 0.0016 µM; in test [2], 0.0114 µM; with KARPAS-422 cells it was 0.0061 µM.
Regarding `Fc1ccc2c(c1CNc1ncc(-c3cccn4c(Cc5ccccc5)cnc34)c3nncn13)CCO2` [8-(3-phenylmethylimidazo[1,2-a]pyridin-8-yl)-N-((5-fluoro-2,3-dihydrobenzofuran-4-yl)methyl)-[1,2,4]triazolo[4,3-c]pyrimidin-5-amine], the 50% inhibitory concentration (IC50) in test [1] was determined as 0.0045 µM; in test [2], 0.0012 µM; in the test on KARPAS-422 cells, 0.0036 µM.
In the same order, the values of `N#Cc1cnc2c(-c3cnc(NCc4c(F)ccc5c4CCO5)n4cnnc34)cccn12` [8-(5-(((5-fluoro-2,3-dihydrobenzofuran-4-yl)methyl)amino)-[1,2,4]triazolo[4,3-c]pyrimidin-8-yl)imidazo[1,2-a]pyridine-3-carbonitrile] are 0.0032 µM, 0.0047 µM and 0.0035 µM.
For `Cc1ccc(-c2cnc(NCc3c(F)ccc4c3CCO4)n3cnnc23)c2ncc(C)n12` [8-(3,5-dimethylimidazo[1,2-a]pyridin-8-yl)-N-((5-fluoro-2,3-dihydrobenzofuran-4-yl)methyl)-[1,2,4]triazolo[4,3-c]pyrimidin-5-amine], the half-maximal inhibitory concentration (IC50) in test [1] is 0.0027 µM; in test [2], 0.0051 µM; in the test with KARPAS-422 cells, 0.0019 µM.
In the same order, the values of `OCc1ccc(-c2cnc(NCc3c(F)ccc4c3CCO4)n3cnnc23)c2nccn12` [(8-(5-(((5-fluoro-2,3-dihydrobenzofuran-4-yl)methyl)amino)-[1,2,4]triazolo[4,3-c]pyrimidin-8-yl)imidazo[1,2-a]pyridin-5-yl)methanol] are 0.0052 µM, 0.021 µM and 0.0086 µM.
In the same order, the values of `NC(=O)c1cnc2c(-c3cnc(NCc4c(F)ccc5c4CCO5)n4cnnc34)cccn12` [8-(5-(((5-fluoro-2,3-dihydrobenzofuran-4-yl)methyl)amino)-[1,2,4]triazolo[4,3-c]pyrimidin-8-yl)imidazo[1,2-a]pyridine-3-carboxamide] are 0.0041 µM, 0.0035 µM and 0.0037 µM.
Take `COC(=O)Cc1cnc2c(-c3cnc(NCc4c(F)ccc5c4CCO5)n4cnnc34)ccc(C)n12` [Methyl 2-(8-(5-(((5-fluoro-2,3-dihydrobenzofuran-4-yl)methyl)amino)-[1,2,4]triazolo[4,3-c]pyrimidin-8-yl)-5-methylimidazo[1,2-a]pyridin-3-yl)acetate]: the IC50 worked out at 0.0038 µM in test [1], 0.0062 µM in test [2] and 0.001 µM with KARPAS-422 cells.
As for `CC1=Cc2c(-c3cnc(NCc4c(F)ccc5c4CCO5)n4cnnc34)cccc2S1(=O)=O` [4-(5-(((5-fluoro-2,3-dihydrobenzofuran-4-yl)methyl)amino)-[1,2,4]triazolo[4,3-c]pyrimidin-8-yl)-2-methylbenzo[b]thiophene 1,1-dioxide], the half-maximal inhibitory concentration (IC50) in test [1] is 0.0036 µM; in test [2], 0.0122 µM; with KARPAS-422 cells, 0.0042 µM.
Consider `CCOC(=O)c1cnc2c(-c3cnc(NCc4c(F)ccc5c4CCO5)n4cnnc34)cccn12` [Ethyl 8-(5-(((5-fluoro-2,3-dihydrobenzofuran-4-yl)methyl)amino)-[1,2,4]triazolo[4,3-c]pyrimidin-8-yl)imidazo[1,2-a]pyridine-3-carboxylate], for which the IC50 in test [1] amounted to 0.006 µM; in test [2] it was 0.0023 µM; in the test on KARPAS-422 cells it was 0.004 µM.
